Test results published in patent US20230174571A1, “METHOD OF TREATING SHIP1-MEDIATED DISEASES USING PELOROL DERIVATIVES” (Zebrapeutics Inc., priority 2020, published 2023).

Assays:
[1] = system: LPS-stimulated TNFα production in BMDM; assay: Continuous flow culture of BMDM, TNFα kinetics; format: cell-based, mouse
Procedure: Production of bone marrow-derived macrophages. Bone marrow-derived macrophages (BMDMs) were generated by first collecting femurs and tibias from mice, and then flushing out the bone marrow through a 26-G needle. Extracted cells were plated, in Mac media supplemented with 5 ng/ml each of CSF-1 and GM-CSF (Stem Cell Technologies, Vancouver, BC), on a 10-cm tissue culture plate for 2 hours at 37° C. Non-adherent cells were collected and replated at 9×10^6 cells per 10-cm tissue culture plate. Cells were then cultured in the presence of CSF-1 and GM-CSF. Differentiated BMDMs were used after 7 to 8 days. All cells were maintained in a 37° C., 5% CO2, 95% humidity incubator.
Continuous Flow Cultures. The continuous flow apparatus facilitates constant stimulation and removal of cell supernatants to determine kinetic profiles of cytokine production over time. BMDMs were seeded at 3×10^6 cells per well in a 24-well tissue culture plate that had been coated with poly-L-lysine (Thermo Fisher Scientific, Nepean, ON) and rinsed with PBS. After overnight incubation, culture media was removed and Leibovitz's L-15 (L-15) media (Invitrogen, Burlington, ON) supplemented with 3% FCS, 10 μM β-mercaptoethanol and 150 μM monothioglycolate was added. Cells were allowed to equilibrate in L-15 media for 1 hour before being placed in the continuous flow apparatus. Stimulation solution was made in the same media equilibrated at 37° C., and was passed through a modified inlet fitted to the well by a syringe pump (New Era Syringe Pumps Inc., Farmingdale, N.Y.). A flow rate of 150 μl per minute was used. At the same time, cell supernatants were removed from the well at the same flow rate, and fractions were collected at 5-minute intervals over the course of 3 hours. These fractions were analyzed for secreted TNFα levels by ELISA.

DDIT4 = DDIT4 expression in macrophages; format: cell-based; details: compound by itself
PAC2-K681A = target: T1, PAC2-K681A (Mus musculus, UniProt Q9ES52, K681A); assay: Biolayer interferometry, PAC2-K681A; format: binding; details: 20 μM analyte; K681A vs wild-type PAC2
T1 construct: PAC1 and PAC2 consists of phosphatase and C2 domain (residues aa 402-861 and aa 402-857 respectively); made in house; host or cells: E. coli BL21 co-transformed with pBirAcm
T1 sequence (Q9ES52 402-857 K681A): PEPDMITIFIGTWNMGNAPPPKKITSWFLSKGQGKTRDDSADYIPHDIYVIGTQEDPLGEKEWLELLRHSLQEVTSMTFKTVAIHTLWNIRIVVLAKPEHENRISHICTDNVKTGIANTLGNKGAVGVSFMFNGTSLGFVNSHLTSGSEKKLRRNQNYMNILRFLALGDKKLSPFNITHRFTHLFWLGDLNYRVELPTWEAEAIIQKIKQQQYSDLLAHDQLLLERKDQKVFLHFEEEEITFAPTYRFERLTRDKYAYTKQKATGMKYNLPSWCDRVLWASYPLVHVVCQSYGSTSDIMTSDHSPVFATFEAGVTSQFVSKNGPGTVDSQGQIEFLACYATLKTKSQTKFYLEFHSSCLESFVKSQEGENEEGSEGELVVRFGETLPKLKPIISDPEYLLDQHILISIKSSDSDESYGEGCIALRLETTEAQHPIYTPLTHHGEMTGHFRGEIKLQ
Procedure: Expression of PAC2-Avi tag for Biolayer interferometry. A sequence corresponding to Avi-tag ([…]) was added to the c-terminal end of the PAC2 in LIC-HMT-PAC2 expressing vector via standard restriction digestion and ligation. The LIC-HMT-PAC2-Avi expressing vector was then co-transformed into E. coli BL21 cells with pBirAcm expression vector in 1:1 molar ratio. Overnight culture was inoculated with a 250-fold dilution to start the actual culture. The cells were grown at 37° C. in LB medium (supplemented with 50 μg/mL of kanamycin and 10 μg/mL of chloramphenicol) with shaking speed of 225 rpm. When OD600 reached about 0.6, 5 mM of biotin in bicine buffer pH 8.3 was added to the culture to have final concentration of 125 μM of biotin. The culture was then cooled down to room temperature before the addition of 0.4 mM isopropyl-B-D-1-thiogalactopyranoside (IPTG) to induce the expression of the recombinant protein with Avi-tag. The rest of the method is identical as written in “Expression of PAC2 for crystallography”.
Biolayer interferometry. […] The association was measured for 600 s at an analyte concentration of 20 μM followed by dissociation for 300 s in the same buffer as the baseline. The raw data was analyzed using the Octet Red Data Analysis software (ver. 8.2). […]

[2] = system: SHIP1 (full length SHIP1, PPAC, PAC2); assay: In vitro phosphatase assay; format: biochemical; details: full length SHIP1, 293T derived PPAC, E. coli derived PPAC, and PAC2; 50 μM IP4
Procedure: In vitro phosphatase assay. The phosphatase assay was performed in 96-well microtiter plates with 10 ng of enzyme/well in a total volume of 25 μL in 20 mM Tris-HCl, pH 7.4, 150 mM NaCl, 0.05% Tween-20, 10 mM MgCl2 as described (Ong et al., 2007). Enzyme was incubated with or compound I-1 (dissolved in ethanol) for 10 minutes at 23° C., before the addition of 50 μM of inositol-1,3,4,5-tetrakisphosphate (IP4) (Echelon Bioscience Inc., Salt Lake City, Utah). The reaction was allowed to proceed for 10 minutes at 37° C. and the amount of inorganic phosphate released was assessed by the addition of Malachite
Green reagent and absorbance measurement at 650 nm. For enzyme kinetic determination, different concentrations of IP4 (0-300 μM) were used and the reactions were stopped at different time points. Initial velocities were calculated, and Kcat and KM were determined using GraphPad 6 software.

**Q.** Which results are given for “IL10: anti-inflammatory cytokine interleukin-10”?
**A.** TNFα levels ([1]; LPS-stimulated SHIP1+/+ and STAT3+/+ BMDM): reduces; inhibition of 3-hour TNFα peak ([1]; LPS-stimulated STAT3−/− and SHIP1−/− (KO) BMDM): partly impaired; inhibition of 1-hour TNFα peak ([1]; LPS-stimulated STAT3−/− and SHIP1−/− BMDM): completely impaired

**Q.** How did the DDIT4 expression (DDIT4) turn out when CC12CCC3C(C)(C)C(N)CCC3(C)C1Cc1cc(O)cc(O)c12 (stereo not drawn) [Compound I-2] was run?
**A.** by itself able to induce DDIT4 expression

**Q.** What about the “binding to PAC2 with K681A substitution (BLI)” value (PAC2-K681A) of the same molecule?
**A.** impairs

**Q.** Which “activation of phosphatase activity” value [2] does the source give for Cc1cc(O)cc2c1C1(C)CCC3C(C)(C)CCCC3(C)C1C2 (stereo not drawn) [Compound I-1] here?
**A.** could be activated
